Among the data in BindingDB's records for doi:10.1021/jm00117a011 (University of Kansas, 1988) are Ki and IC50 values, retold here.

Assay [1] deals with Adenosylhomocysteinase (Bos taurus). Briefly: Evaluated for the 50% inhibition of bovine-liver S-Adenosyl-homocysteine (AdoHcy) hydrolase.
The target is the same in assay [2]. The description is as above. The source holds these as a separate data set.

With `Nc1ncnc2c1ncn2C/C=C\CO`, in assay [1], the Ki came to 125 nM. In other words, the sub-micromolar range.
In turn, `Nc1ncnc2c1ncn2CC#CCO` returned an IC50 in assay [2] of 1000 nM.
In assay [1], `Nc1ncnc2c1ncn2C/C=C/CO` gave a Ki of 330 nM. That is a sub-micromolar value.
Same read-out and setting: as for `Nc1ncnc2c1ncn2C/C=C(\CO)[C@@H](O)CO`, the figure is over 1000 nM; as for `Nc1nccc2c1ncn2CC=C(CO)CO` [2-[2-(4-Amino-imidazo[4,5-c]pyridin-1-yl)-ethylidene]-propane-1,3-diol], 166 nM; as for `Nc1ncnc2c1ncn2CC=C(CO)CO` [2-[2-(6-Amino-purin-9-yl)-ethylidene]-propane-1,3-diol], 110 nM.
In assay [2], `Nc1nccc2c1ncn2C/C=C/CO` [4-(4-Amino-imidazo[4,5-c]pyridin-1-yl)-but-2-en-1-ol] returned an IC50 of 1230 nM.
As for `Nc1nccc2c1ncn2C/C=C\CO` [4-(4-Amino-imidazo[4,5-c]pyridin-1-yl)-but-2-en-1-ol], in assay [1], the Ki was found to be 200 nM.
On to `Nc1nccc2c1ncn2CC#CCO` [4-(4-Amino-imidazo[4,5-c]pyridin-1-yl)-but-2-yn-1-ol], for which the inhibition constant (Ki) in assay [1] was determined as 160 nM.
Still for that read-out and setting: then `C/C(=C/Cn1cnc2c(N)ncnc21)CO` [4-(6-Amino-purin-9-yl)-2-methyl-but-2-en-1-ol], with 170 nM; and `C/C(=C\Cn1cnc2c(N)ncnc21)CO` [4-(6-Amino-purin-9-yl)-2-methyl-but-2-en-1-ol], with 500 nM.
Same read-out and setting: as for `Nc1nccc2c1ncn2C/C=C\[C@@H](O)CO` [5-(4-Amino-imidazo[4,5-c]pyridin-1-yl)-pent-3-ene-1,2-diol], the figure is 90 nM.
`Nc1ncnc2c1ncn2C/C=C/C(O)CO` (stereo not given) [5-(6-Amino-purin-9-yl)-pent-3-ene-1,2-diol] yielded a 50% inhibitory concentration (IC50) in assay [2] of 950 nM.
`Nc1ncnc2c1ncn2C/C=C\[C@@H](O)CO` [5-(6-Amino-purin-9-yl)-pent-3-ene-1,2-diol]: in assay [1], affinity was put at a Ki of 200 nM.
Molecule `CC(C)=CCn1cnc2c(N)ncnc21` [9-(3-Methyl-but-2-enyl)-9H-purin-6-ylamine] showed an IC50 in assay [2] of 930 nM.
